Assay [1] has as its target AChE (from Electrophorus electricus) (Electrophorus electricus, UniProt O42275). Briefly: Anticholinesterase assay. Format: biochemical.
The next assay addresses BChE (from equine serum) (Equus caballus, UniProt P81908). Briefly: Anticholinesterase assay. The conditions noted are these: for IC50: BChE IC50, IC50 ± SEM, Ellman method, 30 min incubation, triplicate. Format: biochemical. On the technique in general: DTNB colorimetry detects thiols as they appear.
Assay [2] can be described thus: DPPH radical scavenging activity. The conditions noted are these: 517 nm, 5 min at room temperature. Background: Loss of DPPH colour is used to gauge radical scavenging.
A short description of assay [3]: ABTS radical scavenging activity. The conditions noted are these: for ABTS EC50: 732 nm, 6 min; for Fold = IC50 of ascorbic acid/IC50 of compounds 5a–p: ratio of the ABTS values relative to ascorbic acid.

“And” between values parts separate entries of the source, which are not always exact repeats. Identical values can stand only once. A value given as a limit tells only on which side of the number the result lay.

Chain of AChE (from Electrophorus electricus) (O42275 24-633): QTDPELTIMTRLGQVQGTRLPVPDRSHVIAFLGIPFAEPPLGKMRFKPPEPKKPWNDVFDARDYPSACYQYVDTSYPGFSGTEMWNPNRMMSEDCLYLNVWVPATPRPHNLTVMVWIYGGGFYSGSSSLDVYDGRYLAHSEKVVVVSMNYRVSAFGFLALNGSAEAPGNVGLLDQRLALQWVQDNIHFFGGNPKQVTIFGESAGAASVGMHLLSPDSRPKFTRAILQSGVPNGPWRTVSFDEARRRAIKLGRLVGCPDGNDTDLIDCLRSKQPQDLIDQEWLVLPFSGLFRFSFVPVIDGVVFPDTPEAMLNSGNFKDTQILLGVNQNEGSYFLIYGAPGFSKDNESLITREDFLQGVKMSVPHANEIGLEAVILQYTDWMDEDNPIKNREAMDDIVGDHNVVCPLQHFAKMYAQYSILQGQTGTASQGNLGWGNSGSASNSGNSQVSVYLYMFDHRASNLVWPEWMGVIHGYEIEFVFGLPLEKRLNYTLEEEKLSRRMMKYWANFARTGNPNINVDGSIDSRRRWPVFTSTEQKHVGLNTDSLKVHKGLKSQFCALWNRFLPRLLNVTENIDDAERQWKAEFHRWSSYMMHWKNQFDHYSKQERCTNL
Chain of BChE (from equine serum) (P81908 whole entry): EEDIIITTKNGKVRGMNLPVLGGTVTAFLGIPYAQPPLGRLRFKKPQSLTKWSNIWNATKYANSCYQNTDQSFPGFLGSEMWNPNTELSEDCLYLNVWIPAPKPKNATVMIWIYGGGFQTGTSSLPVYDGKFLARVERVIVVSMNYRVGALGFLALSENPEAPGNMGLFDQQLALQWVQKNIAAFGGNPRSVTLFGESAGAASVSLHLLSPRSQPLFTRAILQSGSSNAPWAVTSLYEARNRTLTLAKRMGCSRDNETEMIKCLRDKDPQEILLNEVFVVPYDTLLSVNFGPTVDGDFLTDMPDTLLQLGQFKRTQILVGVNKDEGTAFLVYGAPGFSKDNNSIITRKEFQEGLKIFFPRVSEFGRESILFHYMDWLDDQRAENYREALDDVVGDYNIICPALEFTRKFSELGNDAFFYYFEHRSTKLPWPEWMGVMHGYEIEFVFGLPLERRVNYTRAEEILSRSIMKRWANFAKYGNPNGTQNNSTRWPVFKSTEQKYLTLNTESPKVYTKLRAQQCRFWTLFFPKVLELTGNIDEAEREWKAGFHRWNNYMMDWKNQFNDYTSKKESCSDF

In general, IC50 refers to the concentration at which inhibition is half-maximal. Higher therefore signals weaker potency in that assay. For `CCOc1nc2c(c(-c3ccccc3)c1C#N)CCc1nc3c(cc1-2)c(C)nn3-c1ccccc1` [5p, 2-Ethoxy-10-methyl-4,8-diphenyl-6,8-dihydro-5H-pyrazolo[3,4-j][1,7]phenanthroline-3-carbonitrile], the results for the IC50 (in assay [1]; against BChE (from equine serum)) were 329.67 ± 0.01 µM and at least 375 µM, respectively. Besides, the “DPPH EC50” value in assay [2] is above 100 µg/mL. Further, the “ABTS EC50” value in assay [3] is above 100 µg/mL.
Take `COc1cc(-c2c(C#N)c(N)nc3c2CCc2nc4c(cc2-3)c(C)nn4-c2ccccc2)cc(OC)c1OC` [5j, 2-Amino-10-methyl-8-phenyl-4-(3,4,5-trimethoxyphenyl)-6,8-dihydro-5H-pyrazolo[3,4-j][1,7]phenanthroline-3-carbonitrile]: the IC50 was 224.54 ± 0.018 µM in assay [1] and at least 375 µM against BChE (from equine serum). Further, in assay [2], the “DPPH EC50” value was above 100 µg/mL. The “ABTS EC50” value in assay [3] is above 100 µg/mL.
On to `Cc1ccc(-c2c(C#N)c(N)nc3c2CCc2nc4c(cc2-3)c(C)nn4-c2ccccc2)cc1` [5b, 2-Amino-10-methyl-8-phenyl-4-(p-tolyl)-6,8-dihydro-5H-pyrazolo[3,4-j][1,7]phenanthroline-3-carbonitrile], for which the concentration for half-maximal inhibition (IC50) on BChE (from equine serum) was above 847 µM. Further, in assay [2], the “DPPH EC50” value was above 100 µg/mL. Also, in assay [3], the “ABTS EC50” value worked out at 98.77 µg/mL and the “Fold = IC50 of ascorbic acid/IC50 of compounds 5a–p” value (“Fold = IC50 … of compounds 5a–p” below) is recorded as 0.28.
For the compound `Cc1nn(-c2ccccc2)c2nc3c(cc12)-c1nc(N)c(C#N)c(-c2ccc4c(c2)OCO4)c1CC3` [5l, 2-Amino-4-(benzo[d][1,3]dioxol-5-yl)-10-methyl-8-phenyl-6,8-dihydro-5H-pyrazolo[3,4-j][1,7]phenanthroline-3-carbonitrile], the IC50 was 167.94 ± 0.04 µM in assay [1] and 119 µM on BChE (from equine serum). Moreover, the “times less potent than galantamine against BChE” value at BChE (from equine serum) (IC50 ratio versus galantamine) is 15. The “DPPH EC50” value in assay [2] is above 100 µg/mL. In assay [3], the “ABTS EC50” value was above 100 µg/mL.
For `Cc1nn(-c2ccccc2)c2nc3c(cc12)-c1nc(N)c(C#N)c(-c2ccc(C#N)cc2)c1CC3` [5h, 2-Amino-4-(4-cyanophenyl)-10-methyl-8-phenyl-6,8-dihydro-5H-pyrazolo[3,4-j][1,7]phenanthroline-3-carbonitrile], the IC50 was 85.48 ± 0.14 µM in assay [1] and at least 375 µM at BChE (from equine serum). Moreover, in assay [2], the “DPPH EC50” value is above 100 µg/mL. In assay [3], the “ABTS EC50” value was above 100 µg/mL.
Regarding `O=C1O[C@H]([C@@H](O)CO)C(O)=C1O` [Ascorbic acid, reference compound], the “DPPH EC50” value in assay [2] was 1.5 ± 0.2 µg/mL. In assay [3], the “ABTS EC50” value was determined as 27.62 ± 3.5 µg/mL and the “Fold = IC50 … of compounds 5a–p” value is recorded as 1.
Consider `Cc1nn(-c2ccccc2)c2nc3c(cc12)-c1nc(N)c(C#N)c(-c2ccc([N+](=O)[O-])cc2)c1CC3` [5e, 2-Amino-10-methyl-4-(4-nitrophenyl)-8-phenyl-6,8-dihydro-5H-pyrazolo[3,4-j][1,7]phenanthroline-3-carbonitrile], for which, in assay [1], the IC50 was determined as 191.28 ± 0.015 µM. This compound registered an IC50 on BChE (from equine serum) of at least 375 µM. In addition, the “DPPH EC50” value in assay [2] worked out at 26.71 µg/mL. Further, in assay [3], the “ABTS EC50” value amounted to 11.51 µg/mL; the “Fold = IC50 … of compounds 5a–p” value was 2 and 2.40.
The compound `Cc1nn(-c2ccccc2)c2nc3c(cc12)-c1nc(N)c(C#N)c(-c2ccc(Cl)cc2)c1CC3` [5d, 2-Amino-4-(4-chlorophenyl)-10-methyl-8-phenyl-6,8-dihydro-5H-pyrazolo[3,4-j][1,7]phenanthroline-3-carbonitrile] gave an IC50 on BChE (from equine serum) above 810 µM. In addition, in assay [2], the “DPPH EC50” value is above 100 µg/mL. In assay [3], the “ABTS EC50” value is above 100 µg/mL.
For the compound `Cc1nn(-c2ccccc2)c2nc3c(cc12)-c1nc(N)c(C#N)c(-c2cc4ccccc4nc2Cl)c1CC3` [5f, 2-Amino-4-(2-chloroquinolin-3-yl)-10-methyl-8-phenyl-6,8-dihydro-5H-pyrazolo[3,4-j][1,7]phenanthroline-3-carbonitrile], the IC50 in assay [1] is 135.33 ± 0.04 µM; on BChE (from equine serum), at least 375 µM. Further, in assay [2], the “DPPH EC50” value was above 100 µg/mL. Further, the “ABTS EC50” value in assay [3] was determined as 3.10 µg/mL. Moreover, the “Fold = IC50 … of compounds 5a–p” value in assay [3] was 9 and 8.91.
For `Cc1nn(-c2ccccc2)c2nc3c(cc12)-c1nc(N)c(C#N)c(-c2ccccc2)c1CC3` [5a, 2-Amino-10-methyl-4,8-diphenyl-6,8-dihydro-5H-pyrazolo[3,4-j][1,7]phenanthroline-3-carbonitrile], the IC50 in assay [1] was 259.87 ± 0.03 µM; on BChE (from equine serum) it was above 875 µM. Further, the “DPPH EC50” value in assay [2] was above 100 µg/mL. In assay [3], the “ABTS EC50” value is above 100 µg/mL.
On to `Cc1nn(-c2ccccc2)c2nc3c(cc12)-c1nc(N)c(C#N)c(-c2ccc(O)cc2)c1CC3` [5g, 2-Amino-4-(4-hydroxyphenyl)-10-methyl-8-phenyl-6,8-dihydro-5H-pyrazolo[3,4-j][1,7]phenanthroline-3-carbonitrile], for which the “DPPH EC50” value in assay [2] was above 100 µg/mL. Also, in assay [3], the “ABTS EC50” value is below 3 µg/mL and the “Fold = IC50 … of compounds 5a–p” value was “more than nine times”.

The values above are taken from publication PMC9671100 (RSC Advances, 2022).
